Data taken from patent publication US10278975B2, “Serine/threonine kinase inhibitors” (GENENTECH, INC., priority 2013, dated 2019).

System: PMA-stimulated P90RSK(Ser380) phosphorylation in HepG2 cells
Test: Cellular P90RSK(Ser380) Phosphorylation Assay
Assay type: cell-based
Conditions: Homo sapiens, 1.5 hour compound incubation, PMA 100 ng/mL 30 min, normalized to GAPDH, read-out: P-P90RSK (S380) IC50
Experimental: Cellular P90RSK(Ser380) Phosphorylation Assay
Inhibition of PMA-stimulated P90RSK(Ser380) phosphorylation was determined by the following in vitro cellular mechanistic assay, which comprises incubating cells with a compound for 1.5 hours and quantifying fluorescent pP90RSK(Ser380) signal on fixed cells and normalizing to GAPDH signal.
Materials and Methods: HepG2 cells were obtained from ATCC and grown in DMEM supplemented with 10% fetal bovine serum. Cells were plated in 96-well plates at 35,000 cells/well and allowed to attach overnight at 37° C./5% CO2. Diluted compounds were then added at a final concentration of 0.5% DMSO. After 1.5 hour compound incubation, cells were stimulated with the addition of PMA (phorbol 12-myristate 13-acetate) at a final concentration of 100 ng/mL; the PMA stimulation was a 30-minute incubation at 37° C./5% CO2. After the 30-minute PMA stimulation, cells were washed with PBS and fixed in 3.7% formaldehyde in PBS at room temperature for 15-20 minutes. This was followed by another wash in PBS and then permeabilization in 100% MeOH at room temperature for 10-15 minutes. Following the permeabilization incubation, cells were washed in PBS/0.05% Tween-20, followed by a block in Odyssey blocking buffer (LI-COR Biosciences) for at least 1 hour. Antibodies to phosphorylated P90RSK(Ser380) (Cell Signaling #9335, rabbit monoclonal) and GAPDH (Fitzgerald 10R-G109a, mouse monoclonal) were added to the cells and incubated overnight at 4° C. pP90RSK(Ser380) antibody was used at a 1:250 dilution; GAPDH was used at a 1:10,000 dilution. After washing with PBS/0.05% Tween-20, the cells were incubated with fluorescently-labeled secondary antibodies (Anti-rabbit-Alexa Flour680, Invitrogen Cat#A21109; Anti-mouse-IRDye800CW, Rockland Inc. Cat#610-131-121) for 1 hour. Both secondary antibodies were used at a 1:1000 dilution. Cells were then washed and analyzed for fluorescence at both wavelengths using the Odyssey Infrared Imaging System (LI-COR Biosciences). Phosphorylated P90RSK(Ser380) signal was normalized to GAPDH signal. Representative date is in TABLE II (infra).

Compound | IC50 [nM]
Cn1nccc1Nc1nccc(-c2cc3n4c(nnc4c2)[C@@H](Cc2ccc(F)cc2)CN3)n1 [(S) I-21, 4-(3-(4-fluorobenzyl)-4,5-dihydro-3H-1,2,2a^1,5-tetraazaacenaphthylen-7-yl)-N-(1-methyl-1H-pyrazol-5-yl)pyrimidin-2-amine] | 4.32
Cn1nccc1Nc1cc(-c2cc3n4c(nnc4c2)[C@@H](Cc2ccc(Cl)cc2)CO3)ccn1 [(R) I-48, 4-(3-(4-chlorobenzyl)-3,4-dihydro-5-oxa-1,2,2a^1-triazaacenaphthylen-7-yl)-N-(1-methyl-1H-pyrazol-5-yl)pyridin-2-amine] | 1.73
Cn1nccc1Nc1nccc(-c2cc3n4c(nnc4c2)[C@@H](Cc2ccc(Cl)cc2)CCO3)n1 [(S) I-36, 4-(9-(4-chlorobenzyl)-8,9-dihydro-7H-6-oxa-1,2,2a^1-triazabenzo[cd]azulen-4-yl)-N-(1-methyl-1H-pyrazol-5-yl)pyrimidin-2-amine] | 2.45
Cn1nccc1Nc1nccc(-c2cc3n4c(nnc4c2)[C@@H](Cc2ccccc2)CO3)n1 [(R) I-15, 4-(3-benzyl-3,4-dihydro-5-oxa-1,2,2a^1-triazaacenaphthylen-7-yl)-N-(1-methyl-1H-pyrazol-5-yl)pyrimidin-2-amine] | 2.91
Cn1nccc1Nc1cc(-c2cc3n4c(nnc4c2)[C@@H](Cc2ccccc2)CN3)ccn1 [(S) I-7, 4-(3-benzyl-4,5-dihydro-3H-1,2,2a^1,5-tetraazaacenaaphthylen-7-yl)-N-(1-methyl-1H-pyrazol-5-yl)pyridin-2-amine] | 3.87
Cn1nccc1Nc1nccc(-c2cc3n4c(nnc4c2)[C@@H](COCc2ccccc2)CCO3)n1 [(S) I-29, 4-(9-((benzyloxy)methyl)-8,9-dihydro-7H-6-oxa-1,2,2a^1-triazabenzo[cd]azulen-4-yl)-N-(1-methyl-1H-pyrazol-5-yl)pyrimidin-2-amine] | 7.94
CN1C(=O)N(Cc2ccccc2)c2nnc3cc(-c4ccnc(Nc5ccnn5C)n4)cc1n23 [Compound I-28, 3-benzyl-5-methyl-7-(2-((1-methyl-1H-pyrazol-5-yl)amino)pyrimidin-4-yl)-3H-1,2,2a^1,3,5-pentaazaacenaphthylen-4(5H)-one] | 5.05
Cn1nccc1Nc1nccc(-c2cc3n4c(nnc4c2)[C@H](Oc2ccc(F)cc2)CCO3)n1 [(R) I-66, 4-(9-(4-fluorophenoxy)-8,9-dihydro-7H-6-oxa-1,2,2a^1-triazabenzo[cd]azulen-4-yl)-N-(1-methyl-1H-pyrazol-5-yl)pyrimidin-2-amine] | 1
Cn1nccc1Nc1nccc(-c2cc3n4c(nnc4c2)[C@@H](Cn2cc(C(F)(F)F)cn2)CCO3)n1 [(R) I-73, N-(1-methyl-1H-pyrazol-5-yl)-4-(9-((4-(trifluoromethyl)-1H-pyrazol-1-yl)methyl)-8,9-dihydro-7H-6-oxa-1,2,2a^1-triazabenzo[cd]azulen-4-yl)pyrimidin-2-amine] | 4.47
CN1C(=O)C[C@H](Cc2ccc(Cl)cc2)c2nnc3cc(-c4ccnc(Nc5ccnn5C)n4)cc1n23 [(S) I-22, 9-(4-chlorobenzyl)-6-methyl-4-(2-((1-methyl-1H-pyrazol-5-yl)amino)pyrimidin-4-yl)-8,9-dihydro-1,2,2a^1,6-tetraazabenzo[cd]azulen-7(6H)-one] | 1.41
